{"source": "paper PMC11500415", "about": "“Chemical inhibition of stomatal differentiation by perturbation of the master-regulatory bHLH heterodimer via an ACT-Like domain” (Nature Communications, 2024)", "type_in_all_cases": "cell-based", "key": {"SCRM2-SPCH heterodimer": {"molecular_target": "T1, SCRM2-SPCH heterodimer (Arabidopsis thaliana, UniProt Q700C7)", "T1 construct": "heterodimerization of SCRM with full-length SPCH, MUTE, or FAMA in the context of the plant cells; we performed rBiFC assays using full-length SCRM2; nYFP (N terminus of EYFP, 174 amino acids); cYFP (C terminus of EYFP, 64 amino acids); expressed in transfected cells; host or cells: Nicotiana benthamiana leaves (Agrobacterium infiltration)", "T1 sequence (Q700C7 whole entry, one chain of several)": "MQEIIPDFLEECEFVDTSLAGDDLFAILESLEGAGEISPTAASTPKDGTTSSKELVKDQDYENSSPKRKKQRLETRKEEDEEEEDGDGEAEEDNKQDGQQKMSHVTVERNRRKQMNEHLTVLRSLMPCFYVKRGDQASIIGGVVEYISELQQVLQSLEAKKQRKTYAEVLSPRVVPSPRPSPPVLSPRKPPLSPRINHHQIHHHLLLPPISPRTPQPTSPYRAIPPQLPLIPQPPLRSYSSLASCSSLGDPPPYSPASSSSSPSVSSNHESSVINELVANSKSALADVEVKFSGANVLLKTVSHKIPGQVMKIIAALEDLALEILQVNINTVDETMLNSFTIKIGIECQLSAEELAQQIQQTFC", "assay": "Ratiometric BiFC in N. benthamiana leaves", "details": "100 µM", "description": "(§1) For ratiometric BiFC assays, the cDNAs of SPCH, MUTE, and FAMA were cloned into the 35S CaMV promoter-driven destination vector pSPYNE, which contains the N terminus of the EYFP protein (nYFP-174 amino acids), while the cDNA of SCRM and SCRM2 was inserted into pSPYCE, which contains the C terminus of the EYFP protein (cYFP-64 amino acids) (see Supplementary Table 5 for detailed information of the constructs). The constructs were then transformed into Agrobacterium tumefaciens strain GV3101. The Agrobacterium was resuspended in infiltration buffer (10 mM MgCl2, 10 mM 2-(N-morpholino)ethanesulfonic acid [pH 5.6], and 150 µM acetosyringone). Bacterial culture densities were adjusted to a final optical density (OD600) of 1.0, and the cell suspensions were incubated at room temperature for 4 hours prior to infiltration. Equal volumes of cultures carrying the corresponding complementary pair of BiFC constructs (YFPn and YFPc), along with CaMV35S::Histone H2B-mScarlet-I3 and the silencing suppressor plasmid p19 (a gift from Dr. Sir David Baulcombe) were mixed and then co-infiltrated into 4-week-old N. benthamiana leaves. The infiltrated N. benthamiana leaves were incubated at 25 °C for 2 days. Subsequently, leaf discs were cut out and cultured in mock or in liquid 1/2 MS media in mock (DMSO) or 100 µM Stomidazolone for 1 day. Confocal imaging of N. benthamiana leaves was performed using a Leica SP8 confocal microscope using a 20X objective lens (Leica Microsystems), simultaneously capturing YFP (excitation at 518 nm and emission at 530 nm) and mScarlet-I3 (excitation at 569 nm and emission at 600 nm) differential interference contrast channels."}, "SCRM2-MUTE heterodimer": {"molecular_target": "T2, SCRM2-MUTE heterodimer (Arabidopsis thaliana, UniProt Q9M8K6)", "T2 construct": "heterodimerization of SCRM with full-length SPCH, MUTE, or FAMA in the context of the plant cells; nYFP (N terminus of EYFP, 174 amino acids); expressed in transfected cells; host or cells: Nicotiana benthamiana leaves (Agrobacterium infiltration)", "T2 sequence (Q9M8K6 whole entry, one chain of several)": "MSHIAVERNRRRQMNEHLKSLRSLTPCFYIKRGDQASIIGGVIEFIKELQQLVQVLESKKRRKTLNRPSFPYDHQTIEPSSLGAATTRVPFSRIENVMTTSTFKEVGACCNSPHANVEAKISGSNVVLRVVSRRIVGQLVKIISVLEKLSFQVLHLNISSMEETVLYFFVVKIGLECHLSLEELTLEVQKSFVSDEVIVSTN", "assay": "Ratiometric BiFC in N. benthamiana leaves", "details": "100 µM", "description": "as §1"}, "SCRM2-FAMA heterodimer": {"molecular_target": "T3, SCRM2-FAMA heterodimer (Arabidopsis thaliana, UniProt Q56YJ8)", "T3 construct": "heterodimerization of SCRM with full-length SPCH, MUTE, or FAMA in the context of the plant cells; we performed rBiFC assays using full-length SCRM2; nYFP (N terminus of EYFP, 174 amino acids); cYFP (C terminus of EYFP, 64 amino acids); expressed in transfected cells; host or cells: Nicotiana benthamiana leaves (Agrobacterium infiltration)", "assay": "Ratiometric BiFC in N. benthamiana leaves", "details": "100 µM", "description": "as §1"}, "SCRM-FAMA heterodimer": {"molecular_target": "T4, SCRM-FAMA heterodimer (Arabidopsis thaliana, UniProt Q56YJ8)", "T4 construct": "heterodimerization of SCRM with full-length SPCH, MUTE, or FAMA in the context of the plant cells; combinations of split YFP constructs fused to the full-length stomatal bHLH proteins; nYFP (N terminus of EYFP, 174 amino acids); cYFP (C terminus of EYFP, 64 amino acids); expressed in transfected cells; host or cells: Nicotiana benthamiana leaves (Agrobacterium infiltration)", "T4 sequence (Q56YJ8 1-414)": "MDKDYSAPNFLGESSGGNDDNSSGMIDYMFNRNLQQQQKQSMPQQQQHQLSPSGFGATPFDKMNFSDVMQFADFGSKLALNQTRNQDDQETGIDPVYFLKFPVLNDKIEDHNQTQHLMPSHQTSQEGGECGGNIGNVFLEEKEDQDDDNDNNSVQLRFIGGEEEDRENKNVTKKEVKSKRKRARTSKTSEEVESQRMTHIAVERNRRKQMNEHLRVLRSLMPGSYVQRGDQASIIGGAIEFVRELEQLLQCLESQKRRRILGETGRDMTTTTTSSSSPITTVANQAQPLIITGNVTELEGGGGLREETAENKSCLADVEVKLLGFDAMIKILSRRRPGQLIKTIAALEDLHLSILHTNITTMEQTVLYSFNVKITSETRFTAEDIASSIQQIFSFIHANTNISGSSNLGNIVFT", "assay": "Ratiometric BiFC in N. benthamiana leaves", "details": "100 μM, 1 day", "description": "as §1"}, "DB+SCRM (control yeast)": {"molecular_target": "T5, DB+SCRM (control yeast) (Arabidopsis thaliana, UniProt Q9LSE2)", "T5 construct": "expressed in transfected cells; host or cells: yeast strain AH109", "T5 sequence (Q9LSE2 1-494)": "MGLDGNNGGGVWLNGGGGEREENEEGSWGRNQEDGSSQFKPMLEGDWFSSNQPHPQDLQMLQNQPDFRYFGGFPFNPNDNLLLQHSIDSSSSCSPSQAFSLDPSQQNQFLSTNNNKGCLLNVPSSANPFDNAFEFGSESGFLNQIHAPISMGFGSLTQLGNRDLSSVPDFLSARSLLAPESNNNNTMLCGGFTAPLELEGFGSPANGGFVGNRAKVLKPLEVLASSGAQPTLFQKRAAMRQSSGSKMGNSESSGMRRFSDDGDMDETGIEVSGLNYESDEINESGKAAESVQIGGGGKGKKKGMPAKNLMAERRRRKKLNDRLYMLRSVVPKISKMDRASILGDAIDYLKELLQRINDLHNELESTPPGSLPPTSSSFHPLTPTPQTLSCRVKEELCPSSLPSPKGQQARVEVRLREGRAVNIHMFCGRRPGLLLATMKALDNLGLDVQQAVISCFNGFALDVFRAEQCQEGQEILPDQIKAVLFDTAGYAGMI", "assay": "Y2H quantitative α-galactosidase assay, control pair DB+SCRM", "details": "individual replicates, listed as AYSJ929", "description": "Supplement 41467_2024_53214_MOESM7_ESM.xlsx, sheet \"Fig.6b\" | column: a-galactosidase [milliunits /(ml x cell)]"}}, "note": "Several values for one entry are separate records, joined by “and”; a condition that tells them apart may be missing. Equal values may be shown once.", "data": [{"smiles": "O=C1C(c2ccccc2)=NC(NS(=O)(=O)c2ccccc2)(c2ccccc2)N1S(=O)(=O)c1ccccc1", "note": "(stereo not shown) [Stomidazolone]", "values": [{"measurement": "effect on heterodimerization (in words)", "setting": "SCRM2-SPCH heterodimer", "result": "abolished"}, {"measurement": "effect on heterodimerization (in words)", "setting": "SCRM2-MUTE heterodimer", "result": "abolished"}, {"measurement": "effect on heterodimerization (in words)", "setting": "SCRM2-FAMA heterodimer", "result": "abolished"}, {"measurement": "effect on heterodimerization, YFP/RFP signal ratio (in words)", "setting": "SCRM-FAMA heterodimer", "result": "not affecting"}, {"measurement": "a-galactosidase", "setting": "DB+SCRM (control yeast); 10 µM", "result": "0.72 milliunits /(ml x cell) and 0.19 milliunits /(ml x cell) and 0.32 milliunits /(ml x cell)"}, {"measurement": "a-galactosidase", "setting": "DB+SCRM (control yeast); 50 µM", "result": "0.16 milliunits /(ml x cell) and 0.47 milliunits /(ml x cell) and 0.51 milliunits /(ml x cell)"}, {"measurement": "a-galactosidase", "setting": "DB+SCRM (control yeast); 100 µM", "result": "0.46 milliunits /(ml x cell) and 0.80 milliunits /(ml x cell) and 0.52 milliunits /(ml x cell)"}]}]}
